Results: PubChem BioAssay (NCI)
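Interpolation was linear, between the two tested concentrations surrounding the appropriate level; five concentrations were tested over 48 hours in 96-well plates. The concentration for full growth arrest is given as TGI.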

Experiments:
Assay in all cases: growth of human tumour cells (NCI), 48 h
786-0 renal = test system: 786-0 renal
A498 renal = test system: A498 renal
A549 NSCLC = test system: A549 NSCLC
ACHN renal = test system: ACHN renal
CAKI-1 renal = test system: CAKI-1 renal
CCRF-CEM leukemia = test system: CCRF-CEM leukemia
COLO 205 colon = test system: COLO 205 colon
DU-145 prostate = test system: DU-145 prostate
EKVX NSCLC = test system: EKVX NSCLC
HCC-2998 colon = test system: HCC-2998 colon
HCT-116 colon = test system: HCT-116 colon
HCT-15 colon = test system: HCT-15 colon
HL-60(TB) leukemia = test system: HL-60(TB) leukemia
HOP-62 NSCLC = test system: HOP-62 NSCLC
HS 578T breast = test system: HS 578T breast
HT29 colon = test system: HT29 colon
IGROV1 ovarian = test system: IGROV1 ovarian
K-562 leukemia = test system: K-562 leukemia
KM12 colon = test system: KM12 colon
LOX IMVI melanoma = test system: LOX IMVI melanoma
M14 melanoma = test system: M14 melanoma
MALME-3M melanoma = test system: MALME-3M melanoma
MCF7 breast = test system: MCF7 breast
MDA-MB-231 breast = test system: MDA-MB-231 breast
MDA-MB-435 = test system: MDA-MB-435
MDA-N = test system: MDA-N
MOLT-4 leukemia = test system: MOLT-4 leukemia
NCI-H226 lung = test system: NCI-H226 lung
NCI-H23 lung = test system: NCI-H23 lung
NCI-H460 lung = test system: NCI-H460 lung
NCI-H522 lung = test system: NCI-H522 lung
NCI/ADR-RES ovarian = test system: NCI/ADR-RES ovarian
OVCAR-3 ovarian = test system: OVCAR-3 ovarian
OVCAR-4 ovarian = test system: OVCAR-4 ovarian
OVCAR-5 ovarian = test system: OVCAR-5 ovarian
OVCAR-8 ovarian = test system: OVCAR-8 ovarian
PC-3 prostate = test system: PC-3 prostate
RPMI-8226 leukemia = test system: RPMI-8226 leukemia
RXF 393 renal = test system: RXF 393 renal
SF-268 CNS = test system: SF-268 CNS
SF-295 CNS = test system: SF-295 CNS
SF-539 CNS = test system: SF-539 CNS
SK-MEL-2 melanoma = test system: SK-MEL-2 melanoma
SK-MEL-28 melanoma = test system: SK-MEL-28 melanoma
SK-MEL-5 melanoma = test system: SK-MEL-5 melanoma
SK-OV-3 ovarian = test system: SK-OV-3 ovarian
SN12C renal = test system: SN12C renal
SNB-19 CNS = test system: SNB-19 CNS
SNB-75 CNS = test system: SNB-75 CNS
SW-620 colon = test system: SW-620 colon
T-47D breast = test system: T-47D breast
TK-10 renal = test system: TK-10 renal
U251 CNS = test system: U251 CNS
UACC-257 melanoma = test system: UACC-257 melanoma
UACC-62 melanoma = test system: UACC-62 melanoma
HOP-92 NSCLC = test system: HOP-92 NSCLC
UO-31 renal = test system: UO-31 renal

Measured: TGI

Cc1ccccc1N=C(N)Nc1ccccc1C
62.1 µM: HCC-2998 colon
not listed: HOP-92 NSCLC | UO-31 renal
> 100 µM: all other assays above

C=CC[n+]1c2ccccc2n2cc([N+](=O)[O-])ccc21
30.2 µM: MALME-3M melanoma
67.5 µM: MOLT-4 leukemia
43 µM: NCI-H23 lung
55.3 µM: CCRF-CEM leukemia
69.7 µM: OVCAR-3 ovarian
59.2 µM: K-562 leukemia
95.8 µM: SK-MEL-2 melanoma
68.7 µM: SN12C renal
26.2 µM: COLO 205 colon
89.9 µM: SK-MEL-28 melanoma
41 µM: NCI-H522 lung
42 µM: SK-MEL-5 melanoma
50.7 µM: MDA-N
79.8 µM: MCF7 breast
89.2 µM: MDA-MB-435
69.3 µM: NCI-H226 lung
55 µM: A498 renal
74.9 µM: UACC-62 melanoma
44.6 µM: UACC-257 melanoma
50.3 µM: HL-60(TB) leukemia
39.4 µM: HT29 colon
46.5 µM: HOP-92 NSCLC
86.2 µM: OVCAR-8 ovarian
51.5 µM: IGROV1 ovarian
78.7 µM: HCT-116 colon
not listed: HS 578T breast | NCI-H460 lung | RPMI-8226 leukemia | SF-268 CNS
> 100 µM: all other assays above
